From patent US5382670A, “Platelet activating factor antagonists” (priority 1993, dated 1995) come the findings set out here.

pKi: −log10 of the molar value. Counter-ions that a name gives are not always drawn. Like-named read-outs stand apart in the source and are kept apart here.

In the experiment the target is PAF receptor (Oryctolagus cuniculus, UniProt G1TEI7). Put plainly: PAF receptor binding assay: inhibition of specific [3H]C18-PAF binding to rabbit platelet membranes. Particulars: 0.6 nM [3H]C18-PAF, 60 min, 22-23 °C, Ki from IC50 (Cheng and Prusoff). The protocol: The ability of representative compounds of the present invention to inhibit PAF activity was determined in an in vitro test using the following method.
PAF receptor, sequence (G1TEI7 1-342): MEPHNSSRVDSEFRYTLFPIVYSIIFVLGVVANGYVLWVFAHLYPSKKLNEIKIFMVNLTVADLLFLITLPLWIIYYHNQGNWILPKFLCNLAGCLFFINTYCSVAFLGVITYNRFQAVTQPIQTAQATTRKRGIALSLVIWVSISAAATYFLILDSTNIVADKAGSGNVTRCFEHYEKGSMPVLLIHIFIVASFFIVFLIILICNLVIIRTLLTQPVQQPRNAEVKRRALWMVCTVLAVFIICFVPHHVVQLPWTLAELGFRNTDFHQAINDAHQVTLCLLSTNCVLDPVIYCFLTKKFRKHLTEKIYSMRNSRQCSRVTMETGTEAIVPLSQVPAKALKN
Citrated whole rabbit blood was obtained from Pel-Freez (Rogers, AR). Rabbit platelets were prepared by centrifugation and washing. The platelets were lysed by freeze-thawing and sonication; platelet membranes were prepared by centrifugation and washing. Final membrane preparations were stored frozen in 10 mM Tris/5 mM MgCl2 /2 mM EDTA (TME buffer, pH 7.0) with 0.25M sucrose added for membrane stabilization.
The standard PAF receptor binding assay contained 10 μg platelet membrane protein, 0.6 nM [^3 H]C18 -PAF (from Amersham or New England Nuclear; specific activity 120-180 Ci/mmol), with and without test compound, in "binding buffer" consisting of TME with 0.25% bovine serum albumin added (Sigma, RIA grade). The final volume of the assay was 100 μl. The assay was conducted in Millititre-GV™ (Millipore Corp.) filtration plates; incubation time was for 60 minutes at room temperature (22°-23° C.). "Specific binding" was operationally defined as the arithmetic difference between "total binding" of 0.6 nM [^3 H]C18 -PAF (in the abasence of added PAF) and "nonspecific binding" (in the presence of 1 μM PAF). After the prescribed incubation, platelet membranes were filtered under vacuum, and washed with 1 milliliter of "binding buffer". The filters were dried and removed. The bound radioactivity was quantitated with a Berthold TLC-Linear Analyzer model LB2842.
Dose-response curves of inhibition of specific [^3 H]C18 -PAF binding by test compounds were conducted in triplicate, with at least four doses covering the active range. Experiments were repeated at least once. IC50 values (concentration producing 50% inhibition) were determined by point-to-point evaluation. Ki values of inhibitory binding constants were calculated according to the method of Cheng and Prusoff [Biochem. Pharmacol. 22 (1973) 3099-3108] whereby [formula]
The values of Ki for representative compounds of the present invention appear in Table 1.

Where [1] appears, read: read-out: Ki (PAF Receptor Binding Activity).
Where [2] appears, read: Ki (PAF Receptor Binding Activity).

For `CC(C)(C)OC(=O)n1cc(C(=O)C2CSC(c3cccnc3)N2)c2ccccc21` (centres unmarked) [Example 28, 1-tert-butoxycarbonyl-3-[2-(3-pyridinyl)thiazolid-4-oyl]indole oxalate], the pKi (commonly the Ki on a negative log10 scale, so that one unit is a factor of ten) under setting [1] was 8.70. Still for that read-out and setting: next, `O=C(c1c[nH]c2ccccc12)C1CSC(c2cccnc2)S1` (centres unmarked) [Example 31, 3-2-(3-pyridinyl)dithiolan-4-oyl]indole oxalate]: 5.77; `O=C(c1cn(S(=O)(=O)c2ccccc2)c2ccccc12)C1CSC(c2cccnc2)S1` (centres unmarked) [Example 32, 1-phenylsulfonyl 3-[2-(3-pyridinyl)dithiolan-4-oyl]indole oxalate]: 6.00. Same read-out and setting: next, `O=C(c1c[nH]c2cc(OCc3ccccc3)ccc12)C1CSC(c2cccnc2)N1` (centres unmarked) [Example 34, 6-phenylmethoxy-3-[2-(3-pyridinyl)thiazolid-4-oyl]indole]: 8.70.

`CC(C)(C)OC(=O)n1cc(C(=O)C2CSC(c3cccnc3)N2)c2ccc(OCc3ccccc3)cc21` (centres unmarked) [Example 35, 1-tert-butoxycarbonyl-6-phenylmethoxy-3-[2-(3-pyridinyl)thiazolid-4-oyl]indole oxalate]: the pKi under setting [1] was 9.00. Consider `O=C(c1cn(S(=O)(=O)c2ccccc2)c2ccccc12)C1CSC(c2cccnc2)N1` (centres unmarked) [Example 36, 1-phenylsulfonyl-3-[2-(3-pyridinyl)thiazolid-4-oyl]indole], for which the pKi under setting [1] is 7.52. Turning to `CS(=O)(=O)n1cc(C(=O)C2CSC(c3cccnc3)N2)c2ccccc21` (centres unmarked) [Example 37, 1-methylsulfonyl-3-[2-(3-pyridinyl)thiazolid-4-oyl-]indole], the pKi under setting [2] is 7.82. For `CN(C)C(=O)n1cc(C(=O)C2CSC(c3cccnc3)N2)c2ccccc21` (centres unmarked) [Example 38], the negative-log Ki (pKi) under setting [1] was 9.00. Take `Cc1[nH]c2ccccc2c1C(=O)C1CSC(c2cccnc2)N1` (centres unmarked) [Example 39]: the pKi under setting [2] is 7.64.

Take `Cc1c(C(=O)C2CSC(c3cccnc3)N2)c2ccccc2n1C(=O)OC(C)(C)C` (centres unmarked) [Example 40, 1-tert-butoxycarbonyl-2-methyl-3-[2-(3-pyridinyl)thiazolid-4-oyl]indole oxalate]: under setting [1], the pKi was 8.00. Turning to `O=C(c1cn(C(=O)c2ccc(Cl)cc2)c2ccccc12)C1CSC(c2cccnc2)N1` (centres unmarked) [Example 44, 1-(4-chlorobenzoyl)-3-[2-(3-pyridinyl)thiazolid-4oyl]indole], the pKi under setting [1] is 8.40.

For `O=C(c1cn(C(=O)OCc2ccccc2)c2ccccc12)C1CSC(c2cccnc2)N1` (centres unmarked) [Example 45, 1-phenylmethoxycarbonyl-3-[2-(pyridinyl)thiazolid-4-oyl]indole oxalate], the pKi under setting [1] is 8.52. For the compound `O=C(c1cn(Cc2ccccc2)c2ccccc12)C1CSC(c2cccnc2)N1` (centres unmarked) [Example 46, 1-phenylmethyl-3-[2-(3-pyridinyl)thiazolid-4-oyl]indole], the negative-log Ki (pKi) under setting [2] was 7.30. `CC(C)(C)C(=O)n1cc(C(=O)C2CSC(c3cccnc3)N2)c2ccccc21` (centres unmarked) [Example 47, 1-tert-butoyl-3-[2-(3-pyridinyl)thiazolid-4-oyl]indole]: the pKi under setting [1] was 8.05.

As to `CCN(CC)C(=O)n1cc(C(=O)C2CSC(c3cccnc3)N2)c2ccccc21` (centres unmarked) [Example 48, 1-diethylcarbamoyl-3-[2-(3-pyridinyl)thiazolid-4-oyl]indole], the pKi under setting [1] is 9.00. The same measure, in the same setting: for `CN(C(=O)n1cc(C(=O)C2CSC(c3cccnc3)N2)c2ccccc21)c1ccccc1` (centres unmarked) [Example 49, 1-(N-methyl, N-phenyl)-3-[2-(3-pyridinyl)thiazolid-4-oyl]indole] the value was 7.60; for `O=C(c1c[nH]c2c(OCc3ccccc3)cccc12)C1CSC(c2cccnc2)N1` (centres unmarked) [Example 50, 7-phenylmethoxy-3-[2-(3-pyridinyl)thiazolid-4-oyl]indole], 9.00. On the same count and under the same terms, next, `CN(C)C(=O)n1cc(C(=O)C2CSC(c3cccnc3)N2)c2cccc(OCc3ccccc3)c21` (centres unmarked) [Example 51, 1-dimethylcarbamoyl)-7-phenylmethoxy-3-[2-(3-pyridinyl)thiazolid-4-oyl]indole oxalate]: 7.89; `CN(C)C(=O)n1cc(C(=O)C2CSC(c3cccnc3)N2)c2ccc(OCc3ccccc3)cc21` (centres unmarked) [Example 52, 1-dimethylcarbamoyl-6-phenylmethoxy-3-[2-(3-pyridinyl)thiazolid-4-oyl]indole]: 9.00; `CC(C)(C)OC(=O)n1cc(C(=O)C2CSC(c3cccnc3)N2)c2cccc(OCc3ccccc3)c21` (centres unmarked) [Example 53, 1-tert-butoxycarbonyl-7-phenylmethoxy-3-[2-(3-pyridinyl)thiazolid-4-oyl]indole]: 9.00. `CC(C)(C)NC(=O)n1cc(C(=O)C2CSC(c3cccnc3)N2)c2ccccc21` (centres unmarked) [Example 54]: the pKi under setting [1] is 8.05. Same read-out and setting: for `O=C(c1cn(C(=O)N2CCOCC2)c2ccccc12)C1CSC(c2cccnc2)N1` (centres unmarked) [Example 55, 1-(4-morpholinocarbonyl)-3-[2-(3-pyridinyl)thiazolid-4-oyl]indole] the value was 8.70; for `CC(C)(C)OC(=O)n1cc(C(=O)C2CSC(c3cccnc3)N2C=O)c2ccccc21` (centres unmarked) [Example 56, 1-tert-butoxycarbonyl-3-[2-(3-pyridinyl)-3-formylcarbonylthiazolid-4-oyl]indole], 6.82; for `CC(=O)N1C(C(=O)c2cn(C(=O)OC(C)(C)C)c3ccccc23)CSC1c1cccnc1` (centres unmarked) [Example 57, 1-tert-butoxycarbonyl-3-[2-(3-pyridinyl)-3-acetylthiazolid-4-oyl]indole], 8.00. Same read-out and setting: next, `CC(C)(C)OC(=O)n1cc(C(=O)C2CSC(c3cccnc3)N2C(N)=O)c2ccccc21` (centres unmarked) [Example 58, 1-tert-butoxycarbonyl-3-[2-(3-pyridinyl)-3-carbamoylthiazolid-4-oyl]indole]: 6.27. For the compound `O=C(c1cn(CC(F)(F)F)c2ccccc12)C1CSC(c2cccnc2)N1` (centres unmarked) [Example 59, 1-trifluoroethyl-3-[2-(3-pyridinyl)thiazolid-4-oyl]indole], the pKi under setting [2] is 7.70. Same read-out and setting: for `CCOC(=O)Cn1cc(C(=O)C2CSC(c3cccnc3)N2)c2ccccc21` (centres unmarked) [Example 60, 1-ethoxycarbonylmethyl-3-[2-(3-pyridinyl)thiazolid-4-oyl]indole] the value was 8.70. Under setting [2], `CCCn1cc(C(=O)C2CSC(c3cccnc3)N2)c2ccccc21` (centres unmarked) [Example 61, 1-propyl-3-[2-(3-pyridinyl)thiazolid-4-oyl]indole] showed a pKi of 8.10. For the compound `CCS(=O)(=O)n1cc(C(=O)C2CSC(c3cccnc3)N2)c2ccccc21` (centres unmarked) [Example 62, 1-ethylsulfonyl-3-[2-(3-pyridinyl)thiazolid-4-oyl]indole], the pKi under setting [1] was 7.74. Same read-out and setting: for `Cc1c(C(=O)C2CSC(c3cccnc3)N2)c2ccccc2n1C(=O)N1CCOCC1` (centres unmarked) [Example 64, 1-(1-morpholinocarbonyl)-2-methyl-3-[2-(3-pyridinyl)thiazolid-4-oyl]indole] the value was 7.06; for `Cc1c(C(=O)C2CSC(c3cccnc3)N2)c2ccccc2n1C(=O)N(C)C` (centres unmarked) [Example 65, 1-dimethylcarbamoyl-2-methyl-3-[2-(3-pyridyl)thiazolid-4-oyl]indole], 8.05. Regarding `Cc1ccc2[nH]c(C)c(C(=O)C3CSC(c4cccnc4)N3)c2c1` (centres unmarked) [Example 66, 2,5-dimethyl-3-[2-[3-pyridinyl)thiazolid-4-oyl]indole oxalate], the negative logarithm of the Ki (pKi) under setting [2] is 7.51. Regarding `Cc1ccc2c(c1)c(C(=O)C1CSC(c3cccnc3)N1)c(C)n2C(=O)OC(C)(C)C` (centres unmarked) [Example 67, 1-tert-butoxycarbonyl-2,5-dimethyl-3-[2-[3-pyridinyl)thiazolid-4-oyl]indole oxalate], the pKi under setting [1] is 7.41. For `Cc1ccc2c(c1)c(C(=O)C1CSC(c3cccnc3)N1)c(C)n2C(=O)N1CCOCC1` (centres unmarked) [Example 68, 1-(4-morpholinocarbonyl)-2,5-dimethyl-3-[2-(3-pyridinyl)thiazolid-4-oyl]indole], under setting [1], the negative logarithm of the Ki (pKi) is 7.44. The same measure, in the same setting: next, `Cc1ccc2c(c1)c(C(=O)C1CSC(c3cccnc3)N1)c(C)n2C(=O)N(C)C` (centres unmarked) [Example 69, 1-dimethylcarbamoyl-2,5-dimethyl-3-[2-(3-pyridinyl)thiazolid-4oyl]indole oxalate]: 7.89; `O=C(c1c[nH]c2cc(Oc3ccc(F)cc3)ccc12)C1CSC(c2cccnc2)N1` (centres unmarked) [Example 70, 3-[2-(3-pyridinyl)thiazolid-4-oyl]-6-(4-fluorophenoxy)indole]: 8.70. Still for that read-out and setting: for `CN(C)C(=O)n1cc(C(=O)C2CSC(c3cccnc3)N2)c2ccc(Oc3ccc(F)cc3)cc21` (centres unmarked) [Example 71, 1-dimethylcarbamoyl-3-[2-(3-pyridinyl)thiazolid-4-oyl]-6-(4-fluorophenoxy)indole] the value was 8.70; for `O=C(c1cn(C(=O)N2CCOCC2)c2cc(OCc3ccccc3)ccc12)C1CSC(c2cccnc2)N1` (centres unmarked) [Example 72, 1-(4-morpholinocarbonyl)-3-[2-(3-pyridinyl)thiazolid-4-oyl]-6-phenylmethoxyindole oxalate], 8.00.
